# Assay results from US20210040073A1, “AZABICYCLO-SUBSTITUTED TRIAZOLE DERIVATIVE, PREPARATION METHOD THEREOF, AND APPLICATION OF SAME IN MEDICINE” (Jiangsu Hengrui Medicine Co., Ltd., priority 2016, published 2021).
# What was measured:
# human V1aR = molecular target: T1, human V1aR (Homo sapiens, UniProt P37288); test: Inhibition activity on human V1aR (Fluo-4 calcium assay, HEK293/human V1aR stably transfected cells, vasopressin 3 nM); assay type: cell-based; settings: calcium signal
# T1 construct: expressed in transfected cells
# Protocol: The inhibition effect of the compounds of the present invention on the activity of human V1aR protein expressed in HEK293/human V1aR stably transfected cells was determined by the following experimental method:
# The pcDNA3.1-V1aR plasmid was transferred into HEK293 cells with the Lipofectamine® 3000 transfection reagent; G418 was added on the next day to screen, and monoclonal cell lines were selected.
# (§1) HEK293/human V1aR stably transfected cells were inoculated in a 96-well plate with an inoculation density of 25,000 cells/well one day in advance. On the next day, a loading buffer containing Fluo-4 dye was formulated using the reagents in the Fluo-4 NW calcium assay kit, and the culture medium was then removed; 100 μl of the loading buffer containing Fluo-4 dye were added to each well, and the plate was incubated at 37° C. for 30 minutes. After that, the plate was moved to room temperature and equilibrated for 10 minutes. The compounds were formulated into concentration gradients of 10^6, 10^5, 10^4, 10^3, 10^2 and 10^1 nM. 1 μl of the compounds in each concentration was added to each well, and the plate was incubated at room temperature for 10 minutes. […] IC50 values of the compounds were calculated by Graphpad prism software using fluorescence signals corresponding to different concentrations.
# The inhibition activity of the compounds of the present invention on human V1aR was determined by the above test, and the obtained IC50 values are shown in Table 2.
# human OTR = molecular target: T2, human OTR (Homo sapiens, UniProt P30559); test: Inhibition activity on human OTR (Fluo-4 calcium assay, HEK293/human OTR stably transfected cells, oxytocin 3 nM); assay type: cell-based; settings: calcium signal
# T2 construct: expressed in transfected cells
# T2 sequence (P30559 1-389): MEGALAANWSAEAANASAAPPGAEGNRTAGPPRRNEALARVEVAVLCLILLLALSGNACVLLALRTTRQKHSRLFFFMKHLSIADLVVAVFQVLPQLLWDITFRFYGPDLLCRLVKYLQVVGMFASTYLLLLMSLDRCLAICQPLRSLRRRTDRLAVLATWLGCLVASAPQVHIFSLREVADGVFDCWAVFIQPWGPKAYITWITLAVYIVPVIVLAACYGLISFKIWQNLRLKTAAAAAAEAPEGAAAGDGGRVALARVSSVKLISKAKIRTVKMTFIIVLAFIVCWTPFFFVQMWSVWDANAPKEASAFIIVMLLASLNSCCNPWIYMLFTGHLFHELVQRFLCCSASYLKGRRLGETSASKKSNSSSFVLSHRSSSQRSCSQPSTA
# Protocol: The inhibition effect of the compounds of the present invention on the activity of human OTR protein expressed in HEK293/human OTR stably transfected cells was determined by the following experimental method:
# The pcDNA3.1-hOTR plasmid was transferred into HEK293 cells with the Lipofectamine® 3000 transfection reagent; G418 was added on the next day to screen, and monoclonal cell lines were selected.
# HEK293/human OTR stably transfected cells were inoculated in a 96-well plate with an inoculation density of 25,000 cells/well one day in advance. On the next day, a loading buffer containing Fluo-4 dye was formulated using the reagents in the Fluo-4 NW calcium assay kit, and the culture medium was then removed; 100 μl of the loading buffer containing Fluo-4 dye were added to each well, and the plate was incubated at 37° C. for 30 minutes. After that, the plate was moved to room temperature and equilibrated for 10 minutes. The compounds were formulated into concentration gradients of 10^6, 10^5, 10^4, 10^3, 10^2 and 10^1 nM. 1 μl of the compounds in each concentration was added to each well, and the plate was incubated at room temperature for 10 minutes. 50 μl of oxytocin polypeptide (3 nM) were automatically added by the machine, and the values were immediately detected at 494/516 nM by the flexstation 3 microplate reader. IC50 values of the compounds were calculated by Graphpad prism software using fluorescence signals corresponding to different concentrations.
# The inhibition activity of the compounds of the present invention on human OTR was determined by the above test, and the obtained IC50 values are shown in Table 1.
# human V2R = molecular target: T3, human V2R (Homo sapiens, UniProt P30518); test: Inhibition activity on human V2R (cAMP HTRF assay, HEK293/human V2R pool cells, vasopressin); assay type: cell-based
# T3 construct: expressed in transfected cells; host or cells: HEK293 (G418-selected pool)
# Protocol: The inhibition effect of the compounds of the present invention on the activity of human V2R protein expressed in HEK293/human V2R cells was determined by the following experimental method:
# The pcDNA3.1-V2R plasmid was transferred into HEK293 cells with the Lipofectamine® 3000 transfection reagent; G418 was added on the next day, and the HEK293/human V2R pool cell lines were obtained.
# HEK293/human V2R pool cells were digested with the cell dissociation solution (enzyme-free), thereby dissociating the cells from the cell culture dish into individual cells. After completion, the cell solution was blown well, and centrifuged to remove the supernatant. The cells were re-suspended in the test buffer 1 (1×HBSS+20 mM HEPES+0.1% BSA) and counted. The cell density was adjusted to 1250 cells/5 μl, i.e., 2.5*10^5/ml.
# The compounds were formulated into a series of concentrations of 20 mM, 6.67 mM, 2.22 mM, 0.74 mM, 0.25 mM, 0.08 mM, 27.4 μM, 9.14 μM, 3.05 μM, 1.02 μM, 0.34 μM and 0 μM (DMSO) with pure DMSO. The compounds were then formulated into a 4-fold use concentration with the test buffer 2 (test buffer 1+1 mM IBMX).
# Agonist: 460 μM vasopressin was used as the mother liquor, formulated as a 2 μM solution with DMSO, which was then diluted to a 0.5 nM solution with the test buffer 2.
# Standard: The first point was 20 μl of a stock solution (2848 nM), which was diluted successively to a total of eleven concentrations in a 4-fold concentration gradient with the test buffer 1 from the second point.
# 1. The well-mixed cells were added to a 384-well plate (5 μl/well) without changing the tip.
# 2. The test compounds and positive compound formulated were added (2.5 μl/well), and the tips were changed.
# 3. The plate was centrifuged at 1000 rpm for 1 min, shaken for 30 sec to mix well, and incubated at room temperature for 30 min.
# 4. The standard curve wells were added with the test buffer 2 (5 μl/well).
# 5. The agonist formulated was added (2.5 μl/well), and the tips were changed; the plate was centrifuged at 1000 rpm for 1 min, shaken for 30 sec to mix well, and incubated at room temperature for 30 min.
# 6. cAMP-d2 (a component in the cAMP dynamic 2 kit) and Anti-cAMP-Eu-Cryptate (a component in the cAMP dynamic 2 kit) were formulated in the dark, which were then mixed well with cAMP lysate (a component in the cAMP dynamic 2 kit) in a ratio of 1:4. Each well was added with the formulated cAMP-d2 solution (5 μl/well), followed by addition of Anti-cAMP-Eu-Cryptate (5 μl/well). The plate was shaken for 30 sec to mix well, and incubated in the dark at room temperature for 1 h.
# 4) Plate reading: The HTRF signals were read by the PheraStar multi-function microplate reader.
# The data in this test was processed using the data processing software Graphpad Prism.
# The inhibition activity of the compounds of the present invention on human V2R was determined by the above test, and the obtained IC50 values are shown in Table 4.
# human V1bR = molecular target: T4, human V1bR (Homo sapiens, UniProt P47901); test: Inhibition activity on human V1bR (Fluo-4 calcium assay, HEK293/human V1bR pool cells, vasopressin 3 nM); assay type: cell-based; settings: calcium signal
# T4 construct: expressed in transfected cells; host or cells: HEK293 (G418-selected pool)
# T4 sequence (P47901 1-424): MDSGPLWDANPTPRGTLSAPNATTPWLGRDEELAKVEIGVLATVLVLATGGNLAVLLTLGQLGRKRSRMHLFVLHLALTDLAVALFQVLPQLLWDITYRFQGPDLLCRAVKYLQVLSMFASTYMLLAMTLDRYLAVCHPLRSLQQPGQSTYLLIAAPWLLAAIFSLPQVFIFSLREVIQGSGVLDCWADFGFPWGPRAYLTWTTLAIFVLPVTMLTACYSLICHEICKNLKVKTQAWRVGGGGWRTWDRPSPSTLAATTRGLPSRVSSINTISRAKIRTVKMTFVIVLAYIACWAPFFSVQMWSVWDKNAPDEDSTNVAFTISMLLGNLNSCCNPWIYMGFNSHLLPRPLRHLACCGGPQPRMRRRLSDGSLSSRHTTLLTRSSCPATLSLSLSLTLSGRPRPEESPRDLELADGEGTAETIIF
# Protocol: The inhibition effect of the compounds of the present invention on the activity of human V1bR protein expressed in HEK293/human V1bR cells was determined by the following experimental method:
# The pcDNA3.1-V1bR plasmid was transferred into HEK293 cells with the Lipofectamine® 3000 transfection reagent; G418 was added on the next day, and the HEK293/human V1bR pool cell lines were obtained.
# as §1, with “V1bR pool” for “V1aR stably transfected”
# [1] = Pharmacokinetics assay in rats after intragastrical administration; settings: both, Sprague-Dawley, rat, plasma, po, 2 mg/kg
# Protocol: Rats were used as test animals. […] The pharmacokinetic behavior of the compounds of the present invention was studied and evaluated in rats.
# After an overnight fast, SD rats were administered intragastrically the test compounds at an administration dosage of 2.0 mg/kg and an administration volume of 10.0 mL/kg.
# 0.2 mL of blood was taken from the orbital sinus before administration and at 0.5, 1.0, 2.0, 4.0, 6.0, 8.0, 11.0 and 24.0 hours after administration. The samples were stored in heparinized tubes, and centrifuged for 10 minutes at 4° C. at 3,500 rpm to separate the blood plasma. The plasma samples were stored at −20° C. The rats were fed 2 hours after administration.
# The content of the test compounds in the plasma of rats after intragastrical administration of the test compounds at different concentrations was determined: 25 μL of rat plasma at each time after administration was taken, added with 50 μL of the internal standard solution of camptothecin (100 ng/mL) and 200 μL of acetonitrile, vortex-mixed for 5 minutes, and centrifuged for 10 minutes (4000 rpm). 1.0 μL of the supernatant was taken from the plasma samples for LC/MS/MS analysis.
# T1 sequence (P37288 whole entry): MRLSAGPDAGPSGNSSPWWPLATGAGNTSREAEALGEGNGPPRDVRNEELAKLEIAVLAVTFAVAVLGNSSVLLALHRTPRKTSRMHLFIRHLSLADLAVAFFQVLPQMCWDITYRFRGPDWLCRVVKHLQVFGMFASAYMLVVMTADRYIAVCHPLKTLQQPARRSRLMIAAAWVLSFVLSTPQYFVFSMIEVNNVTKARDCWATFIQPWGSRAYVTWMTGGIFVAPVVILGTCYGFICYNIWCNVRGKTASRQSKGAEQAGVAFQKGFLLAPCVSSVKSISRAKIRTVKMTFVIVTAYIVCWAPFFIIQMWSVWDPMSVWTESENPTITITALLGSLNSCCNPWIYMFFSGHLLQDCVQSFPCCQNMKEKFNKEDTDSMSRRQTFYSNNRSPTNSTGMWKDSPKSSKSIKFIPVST
# T3 sequence (P30518 whole entry): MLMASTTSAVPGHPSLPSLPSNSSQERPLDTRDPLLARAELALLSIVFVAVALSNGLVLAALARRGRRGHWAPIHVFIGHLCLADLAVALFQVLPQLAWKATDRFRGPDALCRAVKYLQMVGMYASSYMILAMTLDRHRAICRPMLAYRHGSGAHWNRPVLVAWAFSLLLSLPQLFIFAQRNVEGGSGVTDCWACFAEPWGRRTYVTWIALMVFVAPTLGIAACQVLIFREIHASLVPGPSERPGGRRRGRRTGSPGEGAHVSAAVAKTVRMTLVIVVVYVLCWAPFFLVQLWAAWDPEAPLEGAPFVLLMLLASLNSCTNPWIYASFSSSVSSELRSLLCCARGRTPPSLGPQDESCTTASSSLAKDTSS
SMILES,IC50 (human V1aR),IC50 (human OTR),IC50 (human V2R),IC50 (human V1bR),AUC [1],CL/F [1],Cmax [1],MRT [1],Vd/F [1],half-life [1]
"COCc1nnc(N2C[C@@H]3C[C@]3(c3ccc(F)cc3Cl)C2)n1-c1ccc2c(c1)OCO2 [Example 5, (1S,5R)-3-(4-(Benzo[d][1,3]dioxol-5-yl)-5-(methoxymethyl)-4H-1,2,4-triazol-3-yl)-1-(2-chloro-4-fluorophenyl)-3-azabicyclo[3.1.0]hexane]",1 µM,0.131 µM,,,,,,,,
"COc1ccc(-n2c(CO[C@H]3CCOC3)nnc2N2C[C@@H]3C[C@]3(c3ccc(F)cc3Cl)C2)cn1 [Example 3, (1S,5R)-1-(2-Chloro-4-fluorophenyl)-3-(4-(6-methoxypyridin-3-yl)-5-((((S)-tetrahydrofuran-3-yl)oxy)methyl)-4H-1,2,4-triazol-3-yl)-3-azabicyclo[3.1.0]hexane]",7.5 µM,,23 µM,56.7 µM,,,,,,
"COc1ccc(-n2c(C)nnc2N2C[C@@H]3C[C@]3(c3ccc(F)cc3Cl)C2)cn1 [Example 7, (1S,5R)-1-(2-Chloro-4-fluorophenyl)-3-(4-(6-methoxypyridin-3-yl)-5-methyl-4H-1,2,4-triazol-3-yl)-3-azabicyclo[3.1.0]hexane]",2 µM,,90 µM,12.4 µM,,,,,,
"[2H]C([2H])([2H])OCc1nnc(N2C[C@@H]3C[C@]3(c3ccc(F)cc3Cl)C2)n1-c1ccc(OC)nc1 [Example 14, (1S,5R)-1-(2-Chloro-4-fluorophenyl)-3-(5-((methoxy-d3)methyl)-4-(6-methoxypyridin-3-yl)-4H-1,2,4-triazol-3-yl)-3-azabicyclo[3.1.0]hexane]",,0.068 µM,10.4 µM,20.5 µM,,,,,,
"COc1ccc(-n2c(COC(F)F)nnc2N2C[C@@H]3C[C@]3(c3ccc(F)cc3Cl)C2)cn1 [Example 11, (1S,5R)-1-(2-Chloro-4-fluorophenyl)-3-(5-((difluoromethoxy)methyl)-4-(6-methoxypyridin-3-yl)-4H-1,2,4-triazol-3-yl)-3-azabicyclo[3.1.0]hexane]",,0.001 µM,6.8 µM,7.8 µM,3980 ± 2970 ng·h/mL,12.6 ± 8.03 mL/min/kg,405 ± 110 ng/mL,5.82 ± 2.73 h,2.46 ± 0.706 L/kg,2.86 ± 1.27 h
"COc1ccc(-n2c(COC3CCOCC3)nnc2N2C[C@@H]3C[C@]3(c3ccc(F)cc3Cl)C2)cn1 [Example 2, (1S,5R)-1-(2-Chloro-4-fluorophenyl)-3-(4-(6-methoxypyridin-3-yl)-5-(((tetrahydro-2H-pyran-4-yl)oxy)methyl)-4H-1,2,4-triazol-3-yl)-3-azabicyclo[3.1.0]hexane]",4.7 µM,,,,,,,,,
"COCc1nnc(N2CC3CC3(c3ccc(F)cc3Cl)C2)n1-c1ccc(OC)nc1 (stereo not drawn) [Example 8, 1-(2-Chloro-4-fluorophenyl)-3-(5-(methoxymethyl)-4-(6-methoxypyridin-3-yl)-4H-1,2,4-triazol-3-yl)-3-azabicyclo[3.1.0]hexane]",3 µM,0.023 µM,,43.3 µM,1980 ± 1020 ng·h/mL,23.3 ± 18 mL/min/kg,635 ± 273 ng/mL,2.18 ± 0.24 h,1.94 ± 0.983 L/kg,1.08 ± 0.21 h
"COc1ccc(-n2c(C(F)F)nnc2N2C[C@@H]3C[C@]3(c3ccc(F)cc3Cl)C2)cn1 [Example 13, (1S,5R)-1-(2-Chloro-4-fluorophenyl)-3-(5-(difluoromethyl)-4-(6-methoxypyridin-3-yl)-4H-1,2,4-triazol-3-yl)-3-azabicyclo[3.1.0]hexane]",1.9 µM,0.052 µM,,,,,,,,
"COCc1nnc(N2C[C@H]3C[C@@]3(c3ccc(F)cc3Cl)C2)n1-c1ccc(OC)nc1 [Example 10, (1R,5S)-1-(2-Chloro-4-fluorophenyl)-3-(5-(methoxymethyl)-4-(6-methoxypyridin-3-yl)-4H-1,2,4-triazol-3-yl)-3-azabicyclo[3.1.0]hexane]",,0.624 µM,,,,,,,,
